By IC50 is commonly meant the concentration that gives 50% inhibition.

Data on 19 compounds can be found in patent publication US11613531B2, “Inhibitors of RHO associated coiled-coil containing protein kinase” (Kadmon Corporation, LLC, priority 2017, dated 2023).

Read-outs that look alike come from different tables or passages of the source.

Assay [1] deals with Recombinant ROCK2 (amino acids 1-552) (Homo sapiens (Human), UniProt O75116). The assay can be described thus: Z′-Lyte kinase assay, ROCK2. The conditions noted are these: for inhibition at 1 µM: 1 μM compound; for inhibition at 1 µM / inhibition at 0.5 µM: read-out: ROCK2 % inh. @ [conc]; for inhibition at 0.5 µM: 0.5 μM compound. The format is biochemical. A digest of the protocol:
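Recombinant human ROCK1 (aa 1-535) or ROCK2 (aa 1-552) activity read by Z′-Lyte kinase assay. Percent inhibition at 1 μM compound was normalized to DMSO control; IC50 from 9-point 2-fold serial dilutions by nonlinear regression.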

Assay [2] concerns ppMlc (T18/S19) levels in A7R5 cells. In words: A7R5 in-cell ELISA (pMLC). The format is cell-based, Rat. The following applies: Rattus norvegicus, A7R5, A7R5 cells; for inhibition at 1 µM: 1 μM compound. The method in brief:
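A7R5 rat aortic smooth muscle cells seeded 24 h, then treated 90 min with a 9-point 2-fold compound dilution series. Fixed cells probed for ppMlc (T18/S19) by colorimetric in-cell ELISA; cellular IC50 from nonlinear regression curve fit.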
In general terms: ELISA stands for enzyme-linked immunosorbent assay.

Assay [3] concerns human ACTA2 gene promoter luciferase reporter in NIH3T3 cells. In words: NIH3T3 Acta2-promoter driven-luciferase assay. The format is cell-based. The following applies: NIH3T3, 24 h, read-out: NIH3T3 Acta2-luc, IC50. The protocol: NIH3T3 Cells Acta2-Promoter Driven-Luciferase Assay.
A NIH3T3 cell line stably expressing a luciferase reporter driven by the human ACTA2 gene promoter (−1000-1 bp) was established (NIH3T3-Acta2-luciferase). The cells were plated to confluence and treated with the test compounds plus TGFβ1 for 24 hr. Cells were then lysed and luciferase activity was measured using the LightSwitch luciferase kit from Active Motif.
In vitro activities for the compounds were measured with Z′-lyte kinase kit (ThermoFisher Scientific). The percent inhibition rate was calculated by normalizing the kinase activity value obtained with 1 μM compound treatment against DMSO control value and then applied to the formula, [1-(compound/DMSO)]×100%. IC50s were calculated using the nonlinear regression curve fit function of the GraphPad Prism software with kinase activities data measured with 9 points 2-fold serial dilution of compounds treatment. In cell pMLC IC50s were calculated with data obtained from A7R5 cell experiments. A7R5 cells were treated with 9 points 2-fold serial dilution of compounds and ppMlc (T18/S19) levels were determined to calculate cellular IC50 values of the compounds using the nonlinear regression curve fit function of the GraphPad Prism software. NIH3T3 cells stably expressing ACTA2-promoter-driven-luciferase were applied to measure ROCK compounds functional IC50s in cells. Cells were plated in 96 well plates to confluence and treated with 9 points serial dilution of compounds in combination with TGFβ1 for 24 hr. Luciferase activities were measured and compound's IC50s were calculated using the nonlinear regression curve fit function of the GraphPad Prism software.
ROCK inhibitors can be effectively rank ordered by ACTA2-promoter-driven-luciferase reporter cell assay. NIH3T3 cells stably expressing ACTA2-promoter-driven-luciferase were plated in 96 well plates to confluence and treated with 9 points serial dilution of compounds in combination with TGFβ1 for 24 hr. Luciferase activities were measured and compound's IC50s were calculated. By this assay multiple compounds of the invention gave IC50s under 200 nM.

The mark [4] stands for this setting: 9 points 2-fold serial dilution.
Where [5] appears, read: read-out: pMLC % inh A7R5 @ [conc].
[6] abbreviates: NIH3T3 cells, plus TGFβ1 for 24 hr.

Sequence of Recombinant ROCK2 (amino acids 1-552) (O75116 1-552): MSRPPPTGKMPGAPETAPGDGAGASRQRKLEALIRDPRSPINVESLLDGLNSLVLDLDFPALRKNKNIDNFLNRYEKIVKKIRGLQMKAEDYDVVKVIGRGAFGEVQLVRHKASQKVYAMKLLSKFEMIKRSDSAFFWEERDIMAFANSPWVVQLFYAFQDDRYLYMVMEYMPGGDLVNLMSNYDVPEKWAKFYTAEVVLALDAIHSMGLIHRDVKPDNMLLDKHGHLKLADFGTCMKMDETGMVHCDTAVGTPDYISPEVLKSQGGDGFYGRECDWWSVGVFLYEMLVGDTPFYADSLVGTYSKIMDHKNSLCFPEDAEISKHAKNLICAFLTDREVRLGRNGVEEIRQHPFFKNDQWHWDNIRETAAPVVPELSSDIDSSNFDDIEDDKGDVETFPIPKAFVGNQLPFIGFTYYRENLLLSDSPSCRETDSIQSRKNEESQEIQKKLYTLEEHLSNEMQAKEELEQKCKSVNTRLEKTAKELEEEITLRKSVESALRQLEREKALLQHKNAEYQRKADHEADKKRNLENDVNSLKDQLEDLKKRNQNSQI

In the case of `Fc1cnc(N2CC3CCC2CN3)nc1Nc1ccc2[nH]ncc2c1` (stereo not shown) [Example 154, N-(2-(2,5-diazabicyclo[2.2.2]octan-2-yl)-5-fluoropyrimidin-4-yl)-1H-indazol-5-amine], the figures for the inhibition at 1 µM in assay [1] and in assay [2] (setting [5]) were 98.5% and 36.2%, respectively. Also, the results for the IC50 in assay [1] (setting [4]), in assay [2] (ppMlc (T18/S19)) and in assay [3] (setting [6]) were 245 nM, 433 nM and 2910 nM, respectively.
Consider `Fc1cnc(N2CC3CNC(C3)C2)nc1Nc1ccc2[nH]ncc2c1` (stereo not shown) [Example 166, N-(2-(3,6-diazabicyclo[3.2.1]octan-3-yl)-5-fluoropyrimidin-4-yl)-1H-indazol-5-amine], for which the inhibition at 1 µM turned out to be 100% in assay [1] and 34.3% in assay [2] (setting [5]). Further, the 50% inhibitory concentration (IC50) in assay [2] is 259 nM; in assay [3] (with TGFβ1, 24 hr) it was 2040 nM.
Turning to `Fc1cnc(N2CCC3CNCC3CC2)nc1Nc1ccc2[nH]ncc2c1` (stereo not shown) [Example 169, N-(5-fluoro-2-(octahydropyrrolo[3,4-d]azepin-6(1H)-yl)pyrimidin-4-yl)-1H-indazol-5-amine], the results for the inhibition at 1 µM in assay [1] and in assay [2] (setting [5]) were 99.5% and 30.9%, respectively. Further, the IC50 in assay [2] was determined as 395 nM; in assay [3] (with TGFβ1, 24 hr), 1830 nM.
As to `Fc1cnc(N2CCC3NCC3C2)nc1Nc1ccc2[nH]ncc2c1` (stereo not shown) [Example 170, N-(2-(3,7-diazabicyclo[4.2.0]octan-3-yl)-5-fluoropyrimidin-4-yl)-1H-indazol-5-amine], the IC50 in assay [1] worked out at 27 nM; in assay [2], 274 nM; in assay [3] (with TGFβ1, 24 hr) it was 572 nM. Besides, the inhibition at 1 µM in assay [1] was 99.1%; in assay [2] (setting [5]), 31.5%.
`Cc1cc(Nc2ccc3[nH]ncc3c2)nc(N2CCNCC2)n1` [Example 205, N-(6-methyl-2-(piperazin-1-yl)pyrimidin-4-yl)-1H-indazol-5-amine]: the IC50 in assay [1] (setting [4]) came out at 61 nM; in assay [2] (ppMlc (T18/S19)) it was 415 nM; in assay [3] (setting [6]), 1280 nM. Moreover, the inhibition at 10 µM in assay [2] (10 μM compound, read-out: pMLC % inh A7R5 @ [conc]) worked out at 55%.
With `Cc1cc(Nc2ccc3[nH]ncc3c2)nc(N2CC3CC2CN3)n1` (stereo not shown) [Example 211, N-(2-(2,5-diazabicyclo[2.2.1]heptan-2-yl)-6-methylpyrimidin-4-yl)-1H-indazol-5-amine], the inhibition at 1 µM in assay [1] was 104%; in assay [2] (setting [5]) it was 35.8%. The values for the IC50 in assay [2] (ppMlc (T18/S19)) and in assay [3] (setting [6]) were 66 nM and 437 nM, respectively.
On to `CC1CNCCN1c1ncc(F)c(Nc2ccc3[nH]ncc3c2)n1` (stereo not shown) [Example 216, N-(5-fluoro-2-(2-methylpiperazin-1-yl)pyrimidin-4-yl)-1H-indazol-5-amine], for which the IC50 in assay [1] (setting [4]) amounted to 70 nM; in assay [2] (ppMlc (T18/S19)), 517 nM; in assay [3] (setting [6]) it was 1380 nM. Further, the inhibition at 1 µM in assay [2] (setting [5]) amounted to 42.6%.
Regarding `Fc1cnc(N2C3CCC2CNC3)nc1Nc1ccc2[nH]ncc2c1` [Example 221, N-(2-(3,8-diazabicyclo[3.2.1]octan-8-yl)-5-fluoropyrimidin-4-yl)-1H-indazol-5-amine], the IC50 in assay [1] (setting [4]) worked out at 3.7 nM; in assay [2] (ppMlc (T18/S19)) it was 50 nM; in assay [3] (setting [6]) it was 243 nM. The inhibition at 1 µM in assay [2] (setting [5]) was determined as 39.6%.
As for `Clc1cnc(N2C3CNCC2C3)nc1Nc1ccc2[nH]ncc2c1` [Example 222, N-(2-(3,6-diazabicyclo[3.1.1]heptan-6-yl)-5-chloropyrimidin-4-yl)-1H-indazol-5-amine], the IC50 in assay [1] is 4.9 nM; in assay [2], 122 nM; in assay [3] (with TGFβ1, 24 hr) it was 520 nM. Also, the results for the inhibition at 1 µM in assay [1] and in assay [2] (setting [5]) were 102% and 58.2%, respectively.
As to `Cc1nc(N2CC3CC2CN3)nc(Nc2ccc3[nH]ncc3c2)c1F` (stereo not shown) [Example 277, N-(2-(2,5-diazabicyclo[2.2.1]heptan-2-yl)-5-fluoro-6-methylpyrimidin-4-yl)-1H-indazol-5-amine], the IC50 in assay [1] was found to be 3.7 nM; in assay [2], 45 nM; in assay [3] (with TGFβ1, 24 hr), 245 nM. In addition, the inhibition at 1 µM in assay [2] (setting [5]) was found to be 63.4%.
`c1cc2[nH]ncc2cc1Nc1nc(N2C3CCC2CNC3)nc2c1COC2` [Example 278, 2-(3,8-diazabicyclo[3.2.1]octan-8-yl)-N-(1H-indazol-5-yl)-5,7-dihydrofuro[3,4-d]pyrimidin-4-amine]: the IC50 in assay [1] worked out at 6.6 nM; in assay [2], 199 nM; in assay [3] (with TGFβ1, 24 hr) it was 1440 nM. Moreover, in assay [2] (setting [5]), the inhibition at 1 µM worked out at 59.9%.
Take `Fc1cc2[nH]ncc2cc1Nc1nc(N2C3CNCC2C3)ncc1Cl` [Example 295, N-(2-(3,6-diazabicyclo[3.1.1]heptan-6-yl)-5-chloropyrimidin-4-yl)-6-fluoro-1H-indazol-5-amine]: the half-inhibitory concentration (IC50) in assay [1] amounted to 45 nM; in assay [2], 646 nM; in assay [3] (with TGFβ1, 24 hr), 2210 nM. For the same compound, in assay [1], the inhibition at 0.5 µM is 98%.
As to `Fc1cc2[nH]ncc2cc1Nc1nc(N2C3CCC2CNC3)ncc1Cl` [Example 296, N-(2-(3,8-diazabicyclo[3.2.1]octan-8-yl)-5-chloropyrimidin-4-yl)-6-fluoro-1H-indazol-5-amine], the IC50 in assay [1] worked out at 110 nM; in assay [2], 860 nM; in assay [3] (with TGFβ1, 24 hr), 3120 nM. In assay [1], the inhibition at 0.5 µM came out at 90%.
On to `COc1cc2[nH]ncc2cc1Nc1nc(N2C3CNCC2C3)ncc1Cl` [Example 297, N-(2-(3,6-diazabicyclo[3.1.1]heptan-6-yl)-5-chloropyrimidin-4-yl)-6-methoxy-1H-indazol-5-amine], for which the IC50 in assay [1] was 84 nM; in assay [2], 1430 nM; in assay [3] (with TGFβ1, 24 hr) it was 3790 nM. Also, the inhibition at 0.5 µM in assay [1] worked out at 87%.
In the case of `FC(F)(F)c1cnc(N2C3CCC2CNC3)nc1Nc1ccc2[nH]ncc2c1` [Example 298, N-(2-(3,8-diazabicyclo[3.2.1]octan-8-yl)-5-(trifluoromethyl)pyrimidin-4-yl)-1H-indazol-5-amine], the concentration for half-maximal inhibition (IC50) was 75 nM in assay [1]; 1520 nM in assay [2]; greater than 5000 nM in assay [3] (with TGFβ1, 24 hr).
`CN1CCc2nc(N3C4CCC3CNC4)nc(Nc3ccc4[nH]ncc4c3)c2C1` [Example 299, 2-(3,8-diazabicyclo[3.2.1]octan-8-yl)-N-(1H-indazol-5-yl)-6-methyl-5,6,7,8-tetrahydropyrido[4,3-d]pyrimidin-4-amine]: the IC50 is 34 nM in assay [1]; 1200 nM in assay [2]; greater than 10000 nM in assay [3] (with TGFβ1, 24 hr). The inhibition at 0.5 µM in assay [1] stood at 70%.
As to `c1cc(-c2cn[nH]c2)ccc1Nc1nc(N2C3CNCC2C3)nc2c1CNC2` [Example 300, N-(4-(1H-pyrazol-4-yl)phenyl)-2-(3,6-diazabicyclo[3.1.1]heptan-6-yl)-6,7-dihydro-5H-pyrrolo[3,4-d]pyrimidin-4-amine], the inhibition at 0.5 µM in assay [1] amounted to 68%. In addition, the IC50 in assay [2] was greater than 10000 nM; in assay [3] (with TGFβ1, 24 hr) it was greater than 10000 nM.
For `Cc1nc(N2C3CNCC2C3)nc(Nc2ccc3[nH]ncc3c2)c1F` [Example 301, N-(2-(3,6-diazabicyclo[3.1.1]heptan-6-yl)-5-fluoro-6-methylpyrimidin-4-yl)-1H-indazol-5-amine], the IC50 was found to be 0.4 nM in assay [1]; 16 nM in assay [2]; 178 nM in assay [3] (with TGFβ1, 24 hr). Also, the inhibition at 0.5 µM in assay [1] came out at 100%.
`FC(F)(F)c1cnc(N2C3CNCC2C3)nc1Nc1ccc2[nH]ncc2c1` [Example 304, N-(2-(3,6-diazabicyclo[3.1.1]heptan-6-yl)-5-(trifluoromethyl)pyrimidin-4-yl)-1H-indazol-5-amine]: the concentration for half-maximal inhibition (IC50) worked out at 17 nM in assay [1]; 413 nM in assay [2]; 980 nM in assay [3] (with TGFβ1, 24 hr).
